What was measured:
IL-2 production = experiment: Inhibition of IL-2 production in PHA-activated Jurkat cells (ELISA); assay type: cell-based, human; settings: Homo sapiens, Jurkat, 20 h, Jurkat cells, PHA 2.5 μg/mL, 20 hours, IL-2 ELISA; read-out: IC50 (inhibition of IL-2 production)
Experimental: Jurkat cells were placed in a 96 well plate (0.5 million cells per well in 1% FBS medium) then a test compound of this invention was added at different concentrations. After 10 minutes, the cells were activated with PHA (final concentration 2.5 μg/mL) and incubated for 20 hours at 37° C. under CO2. The final volume was 200 μL. Following incubation, the cells were centrifuged and the supernatants collected and stored at −70° C. prior to assaying for IL-2 production. A commercial ELISA kit (IL-2 Eli-pair, Diaclone Research, Besancon, France) was used to detect production of IL-2, from which dose response curves were obtained. The IC50 value was calculated as the concentration at which 50% of maximum IL-2 production after stimulation was inhibited versus a non-stimulation control.

[1] = tested on: ICRAC in human Jurkat T cells; experiment: Whole-cell patch clamp, inhibition of ICRAC current in Jurkat T cells; assay type: cell-based
Experimental: Patch clamp experiments were performed in the tight-seal whole-cell configuration at 21-25° C. High resolution current recordings were acquired by a computer-based patch clamp amplifier system (EPC-9, HEKA, Lambrecht, Germany). Patch pipettes had resistances between 2-4 MΩ after filling with the standard intracellular solution. Immediately following establishment of the whole-cell configuration, voltage ramps of 50-200 ms duration spanning the voltage range of −100 to +100 mV were delivered at a rate of 0.5 Hz over a period of 300-400 seconds. […] Capacitive currents and series resistance were determined and corrected before each voltage ramp using the automatic capacitance compensation of the EPC-9. The low resolution temporal development of membrane currents was assessed by extracting the current amplitude at −80 mV or +80 mV from individual ramp current records.
In general, a whole cell patch clamp method was used to examine the effects of a compound of the invention on a channel that mediates Icrac. […] Then a compound to be tested was perfused (or puffed) to cells in the external solution and the effect of the compound on Icrac was measured. […]
Patch-clamp experiments were performed in the tight-seal whole-cell configuration at 21-25° C. […] Capacitive currents and series resistance were determined and corrected before each voltage ramp using the automatic capacitance compensation of the EPC-9. […]

[2] = tested on: degranulation in RBL cells; experiment: Inhibition of degranulation in RBL cells; assay type: cell-based; settings: Rattus norvegicus, anti-DNP IgE, read-out: IC50 (concentration which inhibits 50% of degranulation in RBL cells)
Experimental: The day before the assay was performed, RBL cells, that had been grown to confluence in a 96 well plate, were incubated at 37° C. for at least 2 hours. The medium was replaced in each well with 100 μL of fresh medium containing […] of anti-DNP IgE.
On the following day, the cells were washed once with PRS (2.6 mM glucose and 0.1% BSA) and 160 μL of PRS was added to each well. A test compound was added to a well in a 20 μL solution at 10× of the desired concentration and incubated for 20 to 40 minutes at 37° C. 20 μL of 10× mouse anti-IgE ([…]) was added. Maximum degranulation occurred between 15 to 40 minutes after addition of anti-IgE.

[3] = tested on: chemotactic response of porcine T cells to MIP-1α; experiment: T cell chemotaxis (cell migration) assay, porcine T cells; assay type: cell-based, pig; settings: Sus scrofa, 10 ng/ml MIP-1α, 2 hr migration, averages of triplicates, read-out: IC50, inhibition of chemotactic response of porcine T cells
Experimental: (§1) Twenty ml aliquots of heparinized whole blood (2 pig, 1 human) were subjected to density gradient centrifugation on Ficoll Hypaque. The buffy coat layers representing peripheral blood mononuclear cells (PBMCs) containing lymphocytes and monocytes were washed once, resuspended in 12 ml of incomplete RPMI 1640 and then placed in gelatin-coated T75 culture flasks for 1 hr at 37° C. The non-adherent cells, representing peripheral blood lymphocytes (PBLs) depleted of monocytes, were resuspended in complete RPMI media and placed in loosely packed activated nylon wool columns that had been equilibrated with warm media. After 1 hr at 37° C., the non-adherent T cell populations were eluted by washing of the columns with additional media. The T cell preparations were centrifuged, resuspended in 5 ml of incomplete RPMI, and counted using a hemocytometer.
(§2) Aliquots of each T cell preparation were labeled with Calcien AM (TefLabs) and suspended at a concentration of 2.4×10^6/ml in HEPES-buffered Hank's Balanced Salt Solution containing 1.83 mM CaCl2 and 0.8 mM MgCl2, pH 7.4 (HHBSS). […] The chemotaxis units were then placed in a CytoFlour 4000 (PerSeptive BioSystems) and the fluorescence of each well measured (excitation and emission wavelengths of 450 and 530 nm, respectively). […]

[4] = tested on: chemotactic response of human T cells to MIP-1α; experiment: T cell chemotaxis (cell migration) assay, human T cells; assay type: cell-based; settings: 100 ng/ml MIP-1α, FIG. 1
Experimental: as §1, §2

COC(=O)c1ccc(C)c(-c2ccc(NC(=O)c3c(F)cccc3F)cc2)c1 [Compound 1, 4′-(2,6-Difluoro-benzoylamino)-6-methyl-biphenyl-3-carboxylic acid methyl ester]
IC50 (IL-2 production): 2 to 4 nM | Inhibition of ICRAC in human Jurkat T cells [1]: strong inhibitor | IC50 [2]: 2520 nM | IC50 [3]: ~5 nM | Inhibition of chemotactic response of human T cells [4]: inhibitory

From patent US8592486B2, “Compounds for inflammation and immune-related uses” (Synta Pharmaceuticals Corp., priority 2005, dated 2013)
